Reference: ChEMBL document CHEMBL1130625, “Synthesis and antibacterial activity of novel 7-(3-substituted-3 or 4-trifluoromethyl-1-pyrrolidinyl)-8-methoxyfluoroquinolones” (1998)

How the values were obtained:
[1] = tested on: Klebsiella pneumoniae; experiment: Compound was tested for antibacterial activity against gram negative Klebsiella pneumoniae KC-1; type: functional
[2] = tested on: Pseudomonas aeruginosa; experiment: Compound was tested for antibacterial activity against gram negative Pseudomonas aeruginosa PAO1; type: functional
[3] = tested on: Proteus mirabilis; experiment: Compound was tested for antibacterial activity against gram negative Proteus mirabilis JY-10; type: functional
[4] = tested on: Staphylococcus aureus; experiment: Compound was tested for antibacterial activity against gram positive Staphylococcus aureus JS-1; type: functional
[5] = tested on: Citrobacter freundii; experiment: Compound was tested for antibacterial activity against gram negative Citrobacter freundii No.7; type: functional
[6] = tested on: Klebsiella pneumoniae; experiment: Compound was tested for antibacterial activity against gram negative Klebsiella pneumoniae No.42; type: functional
[7] = tested on: Staphylococcus aureus; experiment: Compound was tested for antibacterial activity against gram positive Staphylococcus aureus KP-90-3; type: functional
[8] = tested on: Escherichia coli; experiment: Compound was tested for antibacterial activity against gram negative Escherichia coli ML4707; type: functional
[9] = tested on: Pseudomonas aeruginosa; experiment: Compound was tested for antibacterial activity against gram negative Pseudomonas aeruginosa KP-254; type: functional
[10] = tested on: Enterobacter cloacae; experiment: Compound was tested for antibacterial activity against gram negative Enterobacter cloacae Nek39; type: functional
[11] = tested on: Enterococcus faecalis; experiment: Compound was tested for antibacterial activity against gram positive Enterococcus faecalis 1373; type: functional
[12] = tested on: Streptococcus pyogenes; experiment: Compound was tested for antibacterial activity against gram positive Streptococcus pyogenes cook
[13] = tested on: Staphylococcus aureus; experiment: Compound was tested for antibacterial activity against gram positive Staphylococcus aureus FDA 209P JC-1; type: functional
[14] = tested on: Serratia marcescens; experiment: Compound was tested for antibacterial activity against gram negative Serratia marcescens No.16-2; type: functional
[15] = tested on: Acinetobacter calcoaceticus; experiment: Compound was tested for antibacterial activity against gram negative Acinetobacter calcoaceticus No.4; type: functional
[16] = tested on: Escherichia coli; experiment: Compound was tested for antibacterial activity against gram negative Escherichia coli CSH2/RE45; type: functional
[17] = tested on: Klebsiella oxytoca; experiment: Compound was tested for antibacterial activity against gram negative Klebsiella oxytoca GN 10650; type: functional
[18] = tested on: Pseudomonas aeruginosa; experiment: Compound was tested for antibacterial activity against gram negative Pseudomonas aeruginosa AK109; type: functional
[19] = tested on: Escherichia coli; experiment: Compound was tested for antibacterial activity against gram negative Escherichia coli NIHJ JC-2; type: functional
[20] = tested on: Pseudomonas aeruginosa; experiment: Compound was tested for antibacterial activity against gram negative Pseudomonas aeruginosa K-13; type: functional
[21] = tested on: Citrobacter freundii; experiment: Compound was tested for antibacterial activity against gram negative Citrobacter freundii KP-29; type: functional
[22] = tested on: Proteus vulgaris; experiment: Compound was tested for antibacterial activity against gram negative Proteus vulgaris KS-134; type: functional
[23] = tested on: Escherichia coli; experiment: Compound was tested for antibacterial activity against gram negative Escherichia coli CSH2/RK1; type: functional
[24] = tested on: Burkholderia cepacia; experiment: Compound was tested for antibacterial activity against gram negative Burkholderia cepacia 23; type: functional
[25] = tested on: Proteus vulgaris; experiment: Compound was tested for antibacterial activity against gram negative Proteus vulgaris No.33; type: functional
[26] = tested on: Staphylococcus aureus; experiment: Compound was tested for antibacterial activity against gram positive Staphylococcus aureus smith; type: functional
[27] = Klebsiella pneumoniae, read-out: MIC
[28] = Pseudomonas aeruginosa, read-out: MIC
[29] = Proteus mirabilis, read-out: MIC
[30] = Staphylococcus aureus, read-out: MIC
[31] = Citrobacter freundii, read-out: MIC
[32] = Escherichia coli, read-out: MIC
[33] = Enterobacter cloacae, read-out: MIC
[34] = Enterococcus faecalis, read-out: MIC
[35] = Streptococcus pyogenes, read-out: MIC
[36] = Serratia marcescens, read-out: MIC
[37] = Acinetobacter calcoaceticus, read-out: MIC
[38] = Klebsiella oxytoca, read-out: MIC
[39] = Proteus vulgaris, read-out: MIC
[40] = Burkholderia cepacia, read-out: MIC

In the case of COc1c(N2C[C@@H](CN)[C@H](C(F)(F)F)C2)c(F)cc2c(=O)c(C(=O)O)cn(C3CC3)c12.Cl, the MIC [1] is reported as 0.05 µg/mL, the MIC [2] is reported as 1.56 µg/mL and the MIC [3] is reported as 0.05 µg/mL. For the same compound, the MIC [4] was under 0.006 µg/mL, the MIC [5] was 0.78 µg/mL and the MIC [6] was 0.1 µg/mL. For the same compound, the MIC [7] was 0.39 µg/mL, the MIC [8] was 0.025 µg/mL and the MIC [9] was 100 µg/mL. The MIC [10] was 0.39 µg/mL, the MIC [11] was 0.025 µg/mL and the MIC [12] was 0.013 µg/mL. The MIC [13] was 0.025 µg/mL, the MIC [14] was 0.39 µg/mL and the MIC [15] was 0.1 µg/mL. The MIC [16] was 0.39 µg/mL, the MIC [17] was 0.1 µg/mL and the MIC [18] was 1.56 µg/mL. For the same compound, the MIC [19] was 0.025 µg/mL, the MIC [20] was 12.5 µg/mL and the MIC [21] was 12.5 µg/mL. The MIC [22] was 50 µg/mL, the MIC [23] was 0.39 µg/mL and the MIC [24] was 1.56 µg/mL. The MIC [25] was 0.05 µg/mL.
COc1c(N2C[C@H](CN)[C@H](C(F)(F)F)C2)c(F)cc2c(=O)c(C(=O)O)cn(C3CC3)c12.Cl gave an MIC [1, 27] of 0.05 µg/mL, an MIC [2, 28] of 0.78 µg/mL and an MIC [3, 29] of 0.025 µg/mL. The MIC [4, 30] was at most 0.006 µg/mL, the MIC [5, 31] was 0.78 µg/mL and the MIC [6, 27] was 0.1 µg/mL. For the same compound, the MIC [7, 30] was 0.2 µg/mL, the MIC [26] was at most 0.006 µg/mL and the MIC [8, 32] was 0.025 µg/mL. For the same compound, the MIC [9, 28] was 50 µg/mL, the MIC [10, 33] was 0.39 µg/mL and the MIC [11, 34] was 0.05 µg/mL. For the same compound, the MIC [12, 35] was at most 0.006 µg/mL, the MIC [13, 30] was 0.025 µg/mL and the MIC [14, 36] was 0.78 µg/mL. It also gave an MIC [15, 37] of 0.1 µg/mL, an MIC [16, 32] of 0.2 µg/mL and an MIC [17, 38] of 0.05 µg/mL. It also gave an MIC [18, 28] of 0.78 µg/mL, an MIC [19, 32] of 0.05 µg/mL and an MIC [20, 28] of 3.13 µg/mL. The MIC [21, 31] was 6.25 µg/mL, the MIC [22, 39] was 25 µg/mL and the MIC [23, 32] was 0.2 µg/mL. It also gave an MIC [24, 40] of 1.56 µg/mL and an MIC [25, 39] of 0.05 µg/mL.
Compound COc1c(N2CC[C@@](N)(C(F)(F)F)C2)c(F)cc2c(=O)c(C(=O)O)cn(C3CC3)c12.Cl has an MIC [1, 27] of 0.2 µg/mL, an MIC [2, 28] of 6.25 µg/mL and an MIC [3, 29] of 0.2 µg/mL. The MIC [4, 30] was 0.025 µg/mL, the MIC [5, 31] was 3.13 µg/mL and the MIC [6, 27] was 0.39 µg/mL. The MIC [7, 30] was 1.56 µg/mL, the MIC [26] was at most 0.006 µg/mL and the MIC [8, 32] was at most 0.006 µg/mL. It also gave an MIC [9, 28] of over 100 µg/mL, an MIC [10, 33] of 1.56 µg/mL and an MIC [11, 34] of 0.2 µg/mL. The MIC [12, 35] was 0.1 µg/mL, the MIC [13, 30] was 0.05 µg/mL and the MIC [14, 36] was 3.13 µg/mL. It also gave an MIC [15, 37] of 0.2 µg/mL, an MIC [16, 32] of 3.13 µg/mL and an MIC [17, 38] of 0.39 µg/mL. It also gave an MIC [18, 28] of 6.25 µg/mL, an MIC [19, 32] of 0.39 µg/mL and an MIC [20, 28] of 25 µg/mL. For the same compound, the MIC [21, 31] was 100 µg/mL, the MIC [22, 39] was 100 µg/mL and the MIC [23, 32] was 3.13 µg/mL. The MIC [24, 40] was 1.56 µg/mL and the MIC [25, 39] was 0.39 µg/mL.
Compound COc1c(N2CC[C@@](CN)(C(F)(F)F)C2)c(F)cc2c(=O)c(C(=O)O)cn(C3CC3)c12.Cl has an MIC [1, 27] of 1.56 µg/mL, an MIC [2, 28] of over 12.5 µg/mL and an MIC [3, 29] of 0.78 µg/mL. It also gave an MIC [4, 30] of 0.1 µg/mL, an MIC [5, 31] of over 12.5 µg/mL and an MIC [6, 27] of 6.25 µg/mL. The MIC [7, 30] was 6.25 µg/mL, the MIC [26] was 0.05 µg/mL and the MIC [8, 32] was 0.05 µg/mL. For the same compound, the MIC [9, 28] was over 12.5 µg/mL, the MIC [10, 33] was 12.5 µg/mL and the MIC [11, 34] was 0.78 µg/mL. The MIC [12, 35] was 0.78 µg/mL, the MIC [13, 30] was 0.2 µg/mL and the MIC [14, 36] was over 12.5 µg/mL. It also gave an MIC [15, 37] of 1.56 µg/mL, an MIC [16, 32] of over 12.5 µg/mL and an MIC [17, 38] of 6.25 µg/mL. The MIC [18, 28] was over 12.5 µg/mL, the MIC [19, 32] was 3.13 µg/mL and the MIC [20, 28] was over 12.5 µg/mL. It also gave an MIC [21, 31] of over 12.5 µg/mL, an MIC [22, 39] of over 12.5 µg/mL and an MIC [23, 32] of over 12.5 µg/mL. The MIC [24, 40] was 3.13 µg/mL and the MIC [25, 39] was 3.13 µg/mL.
Compound COc1c(N2C[C@@H](CN)[C@H](C)C2)c(F)cc2c(=O)c(C(=O)O)cn(C3CC3)c12.Cl has an MIC [1, 27] of 0.1 µg/mL, an MIC [2, 28] of 0.78 µg/mL and an MIC [3, 29] of 0.05 µg/mL. The MIC [4, 30] was at most 0.006 µg/mL, the MIC [5, 31] was 0.39 µg/mL and the MIC [6, 27] was 0.1 µg/mL. For the same compound, the MIC [7, 30] was 0.2 µg/mL, the MIC [26] was at most 0.006 µg/mL and the MIC [8, 32] was 0.025 µg/mL. For the same compound, the MIC [9, 28] was 100 µg/mL, the MIC [10, 33] was 0.39 µg/mL and the MIC [11, 34] was 0.05 µg/mL. The MIC [12, 35] was at most 0.006 µg/mL, the MIC [13, 30] was 0.013 µg/mL and the MIC [14, 36] was 0.39 µg/mL. The MIC [15, 37] was 0.2 µg/mL, the MIC [16, 32] was 0.39 µg/mL and the MIC [17, 38] was 0.1 µg/mL. For the same compound, the MIC [18, 28] was 0.78 µg/mL, the MIC [19, 32] was 0.05 µg/mL and the MIC [20, 28] was 6.25 µg/mL. The MIC [21, 31] was 12.5 µg/mL, the MIC [22, 39] was 50 µg/mL and the MIC [23, 32] was 0.39 µg/mL. It also gave an MIC [24, 40] of 1.56 µg/mL and an MIC [25, 39] of 0.1 µg/mL.
Work on COc1c(N2C[C@@H](N)[C@H](C(F)(F)F)C2)c(F)cc2c(=O)c(C(=O)O)cn(C3CC3)c12.O=C(O)C(F)(F)F yielded an MIC [1, 27] of 0.39 µg/mL, an MIC [2, 28] of 3.13 µg/mL and an MIC [3, 29] of 0.2 µg/mL. It also gave an MIC [4, 30] of 0.05 µg/mL, an MIC [5, 31] of 3.13 µg/mL and an MIC [6, 27] of 0.39 µg/mL. For the same compound, the MIC [7, 30] was 3.13 µg/mL, the MIC [26] was 0.05 µg/mL and the MIC [8, 32] was 0.05 µg/mL. The MIC [9, 28] was over 100 µg/mL, the MIC [10, 33] was 3.13 µg/mL and the MIC [11, 34] was 0.39 µg/mL. The MIC [12, 35] was 0.39 µg/mL, the MIC [13, 30] was 0.1 µg/mL and the MIC [14, 36] was 3.13 µg/mL. For the same compound, the MIC [15, 37] was 0.2 µg/mL, the MIC [16, 32] was 3.13 µg/mL and the MIC [17, 38] was 0.39 µg/mL. The MIC [18, 28] was 6.25 µg/mL, the MIC [19, 32] was 0.39 µg/mL and the MIC [20, 28] was 25 µg/mL. For the same compound, the MIC [21, 31] was 100 µg/mL, the MIC [22, 39] was 100 µg/mL and the MIC [23, 32] was 3.13 µg/mL. The MIC [24, 40] was 1.56 µg/mL and the MIC [25, 39] was 0.39 µg/mL.
